Assay results reported in patent US9730445B2, “Herbicidal compositions comprising 4-amino-3-chloro-5-fluoro-6-(4-chloro-2-fluoro-3-methoxyphenyl) pyridine-2-carboxylic acid or a derivative thereof and fungicides” (DOW AGROSCIENCES LLC, priority 2013, dated 2017).
Values joined by “and” are separate entries in the source; they are usually repeats but may differ in a detail not shown here. Equal entries are not always repeated.

Tests used:
DIGSA = experiment: Postemergence foliar-applied weed control, direct-seeded rice (greenhouse); format: in vivo, Digitaria sanguinalis (L.) Scop. (large crabgrass)
CYPRO = experiment: In-water applied weed control, transplanted paddy rice (greenhouse); format: in vivo, Cyperus rotundus L. (purple nutsedge); conditions: 19 DAA
Description: Weed seeds or nutlets of the desired test plant species were planted in puddled soil (mud) prepared by mixing a shredded, non-sterilized mineral soil (50.5 percent silt, 25.5 percent clay, and 24 percent sand, with a pH of about 7.6 and an organic matter content of about 2.9 percent) and water at a 1:1 volumetric ratio. The prepared mud was dispensed in 365 mL aliquots into 16-ounce (oz.) non-perforated plastic pots with a surface area of 86.59 square centimeters (cm^2) leaving a headspace of 3 centimeters (cm) in each pot. Rice seeds were planted in Sun Gro MetroMix® 306 planting mixture, which typically has a pH of 6.0 to 6.8 and an organic matter content of about 30 percent, in plastic plug trays. Seedlings at the second or third leaf stage of growth were transplanted into 860 mL of mud contained in 32-oz. non-perforated plastic pots with a surface area of 86.59 cm^2 4 days prior to herbicide application. The paddy was created by filling the headspace of the pots with 2.5 to 3 cm of water. When required to ensure good germination and healthy plants, a fungicide treatment and/or other chemical or physical treatment was applied. The plants were grown for 4-22 days in a greenhouse with an approximate 14 hour (h) photoperiod which was maintained at about 29° C. during the day and about 26° C. during the night. Nutrients were added as Osmocote® (17:6:10, N:P:K+minor nutrients) at 2 g per cup. Water was added on a regular basis to maintain the paddy flood, and supplemental lighting was provided with overhead metal halide 1000-Watt lamps as necessary. The plants were employed for testing when they reached the first through fourth true leaf stage.
Treatments consisted of the acid or esters of 4-amino-3-chloro-5-fluoro-6-(4-chloro-2-fluoro-3-methoxy-phenyl)pyridine-2-carboxylic acid (compound A) each formulated as an SC (suspension concentrate) and various fungicidal components alone and in combination. Forms of compound A were applied on an acid equivalent basis.
Treatment requirements for each compound or fungicidal component were calculated based upon the rates being tested, the concentration of active ingredient or acid equivalent in the formulation, an application volume of 2 mL per component per pot, and an application area of 86.59 cm^2 per pot.
For formulated compounds, a measured amount was placed in an individual 100 or 200 mL glass vial and was dissolved in a volume of 1.25% (v/v) Agri-Dex® crop oil concentrate to obtain application solutions.
For technical grade compounds, a weighed amount was placed in an individual 100 to 200 mL glass vial and dissolved in a volume of acetone to obtain concentrated stock solutions.
Applications were made by injecting with a pipetter appropriate amounts of the application solutions, individually and sequentially, into the aqueous layer of the paddy. Control plants were treated in the same manner with the solvent blank. Applications were made so that all treated plant material received the same concentrations of acetone and crop oil concentrate.
The treated plants and control plants were placed in a greenhouse as described above and water was added as needed to maintain a paddy flood. After approximately 3 weeks the condition of the test plants as compared with that of the untreated plants was determined visually and scored on a scale of 0 to 100 percent where 0 corresponds to no injury or growth inhibition and 100 corresponds to complete kill.
Colby's equation was used to determine the herbicidal effects expected from the mixtures (Colby, S. R. Calculation of the synergistic and antagonistic response of herbicide combinations. Weeds 1967, 15, 20-22.).
The following equation was used to calculate the expected activity of mixtures containing two active ingredients, A and B: Expected=A+B−(A×B/100)

## COc1c(Cl)ccc(-c2nc(C(=O)OCc3ccccc3)c(Cl)c(N)c2F)c1F [Compound A Benzyl Ester]
DIGSA; 20 DAA, r21-23 ester 8/16/32 g ae/ha alone, r24-25 isotianil 100/200 g ai/ha alone, r26-31 ester 8/16/32 at each of 100, 200
  Visual Weed Control (%)—20 DAA DIGSA Obs: 20% and 30% and 40%
DIGSA; 21 DAA, r38-39 ester 8/16 g ae/ha alone, r40 isotianil 380 g ai/ha alone, r41-42 ester 8/16 + 380
  Visual Weed Control (%)—21 DAA DIGSA Obs: 15% and 25%
DIGSA; 22 DAA, r22-24 ester 8/16/32 g ae/ha alone, r25-27 difenoconazole 50/100/200 g ai/ha alone, r28-36 ester 8/16/32 at each of 50, 100, 200
  Visual Weed Control (%) - 22 DAA DIGSA Obs: 15% and 23% and 28%
CYPRO; Compound A Benzyl Ester 8 g ae/ha
  Visual Weed Control (%) - 19 DAA CYPRO Obs: 20%
CYPRO; Compound A Benzyl Ester 16 g ae/ha
  Visual Weed Control (%) - 19 DAA CYPRO Obs: 88%
CYPRO; Compound A Benzyl Ester 32 g ae/ha
  Visual Weed Control (%) - 19 DAA CYPRO Obs: 87%
